{
  "source": "patent US10457667B2",
  "about": "“Indolin-2-one derivatives” (Hoffmann-La Roche Inc., priority 2015, dated 2019)",
  "key": {"[1]": {"test_system": "behaviors of compound-treated mice", "test": "SmartCube behavioral signature similarity analysis", "type": "in vivo, mouse", "source_text": "authors described that hyperlocomotion induced by L-687,414 was inhibited by a series of known antipsychotic drugs. […] These findings predict antipsychotic activity for the present compounds, making them useful for the treatment of positive (psychosis) and negative symptoms of schizophrenia, substance abuse, alcohol and drug addiction, obsessive-compulsive disorders, cognitive impairment, bipolar disorders, mood disorders, major depression, resistant depression, anxiety disorders, Alzheimer's disease, autism, Parkinson's disease, chronic pain, borderline personality disorder, sleep disturbances, chronic fatigue syndrome, stiffness, antiinflammatory effects in arthritis and balance problems, epilepsy and neurodevelopmental disorders with co morbid epilepsy. In addition to the reversal of L-687,414 induced hyperlocomotion experiment as described above, some compounds of the present invention have been tested in SmartCube®, an automated system in which the behaviors of compound-treated mice in response to multiple challenges are captured by digital video and analyzed with computer algorithms (Roberds et al., Frontiers in Neuroscience, 2011, Vol. 5, Art. 103, 1-4; Vadim Alexandrov, Dani Brunner, Taleen Hanania, Emer Leahy Eur. J. Pharmacol. 2015, 750, 82-99). In this way, the neuro-pharmacological effects of a test compound can be predicted by similarity to major classes of compounds, such as antipsychotics, anxiolytics and antidepressants.\nSmartCube® was used to compare the behavioral signature of a test compound to a database of behavioral signatures obtained from a large set of clinically approved reference drugs, grouped per indications. In this way, the neuro-pharmacological effects of a test compound can be predicted by similarity to major classes of compounds, such as antipsychotics, anxiolytics and antidepressants. This approach is ideally suited to screen collections of existing drugs or drug candidates with previously unknown neuropharmacology, which could expedite the development of new and unexpected treatments for psychiatric disorders.\nSome compounds of the present invention were injected i.p. at different doses 15 minutes before the test. At least 8 mice were used in each treatment group. Digital videos of the subjects were processed with computer vision algorithms to extract over 2000 dependent measures including frequency and duration of many different behavioral states. The results of the classifications are presented as bar charts for each compound and dose (mg/kg), the Y-axis indicates the relative probability that the test compound will show efficacy in the specific CNS indication.\nCompounds of the present invention show similar signatures to those of atypical antipsychotics. An independent analysis was performed on the unclassified data to determine the similarity of the example compounds to active doses of known atypical antipsychotics. For this analysis, we use discrimination rate as the measure of separability between the two drugs, i.e. one drug's “distinguishability” from another. A rate equal to 50% (or 0.5) corresponds to zero distinguishability. […] In most cases, the example compounds show a similarity to risperidone, clozapine and olanzapine with a discrimination rate of ≤0.70."}, "[2]": {"target": "T1, mouse ENT-1 transporter (Mus musculus, UniProt Q9JIM1)", "T1 construct": "expressed in transfected cells", "T1 sequence (Q9JIM1 1-460)": "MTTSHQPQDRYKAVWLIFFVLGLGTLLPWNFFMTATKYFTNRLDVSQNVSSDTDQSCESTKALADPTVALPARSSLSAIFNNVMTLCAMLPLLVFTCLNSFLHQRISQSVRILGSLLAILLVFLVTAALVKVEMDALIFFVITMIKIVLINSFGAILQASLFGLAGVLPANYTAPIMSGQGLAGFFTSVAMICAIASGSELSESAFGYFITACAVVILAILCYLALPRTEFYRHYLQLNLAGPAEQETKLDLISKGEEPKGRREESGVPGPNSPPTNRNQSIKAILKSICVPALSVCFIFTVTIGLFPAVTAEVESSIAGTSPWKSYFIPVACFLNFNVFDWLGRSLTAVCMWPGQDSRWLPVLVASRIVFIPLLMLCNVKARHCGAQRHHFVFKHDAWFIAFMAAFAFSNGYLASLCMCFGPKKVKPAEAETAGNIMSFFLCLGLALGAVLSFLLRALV", "test": "ENT1 adenosine uptake inhibition ([3H]-adenosine transport activity)", "type": "cell-based", "conditions": "stable cells expressing mouse ENT-1; [2,8-3H]-adenosine 6 nM, 20 min", "experimental": "To measure adenosine transport activity of ENT-1 mammalian cells, stable cells expressing the mouse ENT-1 transporter were plated on day 1 in 96-well culture plates at the density of 60,000 cells/well, in complete DMEM/F12 medium supplemented with glutamax, 10% FBS and 10 μg/ml puromycin. On day 2, the medium was aspirated and the cells were washed twice with uptake buffer (10 mM Hepes-Tris, pH 7.4 containing 150 mM NaCl, 1 mM CaCl2, 2.5 mM KCl, 2.5 mM MgSO4, 10 mM D-glucose) (UB). For inhibition experiments, cells were then incubated at RT with various concentrations of compounds with 1% DMSO final. Non-specific uptake was defined in the presence of 10 μM S-(4-Nitrobenzyl)-6-thioinosine (NBTI, Sigma Cat #N2255).\nA solution containing [2,8-^3H]-adenosine 6 nM (40 Ci/mmol, American Radiolabeled chemicals Inc, Cat #ART 0287A) was then immediately added to the wells. The plates were then incubated for 20 min with gentle shaking and the reaction was stopped by aspiration of the mixture and washing (three times) with ice-cold UB. The cells were lysed by the addition of scintillation liquid, shaken 3 hours and the radioactivity in the cells was estimated using a microplates scintillation counter (TopCount NXT, Packard)."}, "[3]": {"test_system": "L-687,414-induced hyperlocomotion", "test": "L-687,414-induced hyperlocomotion", "type": "in vivo, mouse", "conditions": "mice; dose 30 mg/kg ip, 15 min before s.c. 50 mg/kg L-687,414", "experimental": "The described compounds of formula I reduce L-687,414-induced hyperlocomotion. This was assessed by using a computerized Digiscan 16 Animal Activity Monitoring System (Omnitech Electronics, Columbus, Ohio) to quantify locomotor activity. Animals were kept under a 12 h light/dark cycle and experiments were performed during the light period. Each activity monitoring chamber consisted of a Plexiglas box (41×41×28 cm; W×L×H) with sawdust bedding on the floor surrounded by invisible horizontal and vertical infrared sensor beams. The test boxes were divided by a Plexiglas cross providing each mouse with 20×20 cm of moving space. Cages were connected to a Digiscan Analyzer linked to a computer that constantly collected the beam status information. Records of photocell beam interruptions for individual animals were taken every 5 min over the duration of the experimental session and the sum of the first 6 periods was used as the final parameter. At least 8 mice were used in each treatment group. Compounds were administered i.p 15 min before a s.c. injection of 50 mg/kg of L-687,414. […] Horizontal activity was then recorded for a 30-min time period. The % inhibition of L-687,414-induced hyperlocomotion was calculated according to the equation: ((Veh+L−687,414 horizontal activity−drug+L−687,414 horizontal activity)/Veh+L−687,414 horizontal activity)×100 […]"}, "[4]": {"conditions": "SmartCube, test compound at 3 mg/kg i.p., rate of 0.70 or lower = similar"}},
  "data": [
    {"compound": "COc1ccc(N2C(=O)C(C)(C)c3ccc(-c4cnc(C)nc4)cc32)nn1", "note": "[Example 12, 1-(6-Methoxypyridazin-3-yl)-3,3-dimethyl-6-(2-methylpyrimidin-5-yl)indolin-2-one]", "values": [
      {"measurement": "discrimination rate vs Clozapine (1.0 mg/kg)", "setting": "[1]; [4]", "result": 0.67},
      {"measurement": "discrimination rate vs Olanzapine (0.25 mg/kg)", "setting": "[1]; [4]", "result": 0.63},
      {"measurement": "discrimination rate vs Risperidone (0.06 mg/kg)", "setting": "[1]; [4]", "result": 0.56},
      {"measurement": "SmartCube behavioral signature classification", "setting": "[1]; mice, result in words", "result": "similarity to atypical antipsychotics"},
      {"measurement": "IC50", "setting": "[2]", "result": 34.8, "unit": "nM"},
      {"measurement": "Inhibition, ip of L-687,414-induced hyperlocomotion", "setting": "[3]", "result": 94.6, "unit": "%"}
    ]}
  ]
}
